# Patent US20200164038A1, “MODIFIED NUCLEOSIDE, NUCLEOTIDE, AND NUCLEIC ACID COMPOSITIONS” (ModernaTX, Inc., priority 2011, published 2020)
# B1: VEGF-A: modified mRNA VEGF-A SEQ ID NO 19, Cap1, fully modified with 5-methylcytosine and pseudouridine, complexed with Lipofectamine2000 (nucleic acid, listed as Homo sapiens)
# chain: GGGAAAUAAGAGAGAAAAGAAGAGUAAGAAGAAAUAUAAGAGCCACCAUGAACUUUCUCUUGUCAUGGGUGCACUGGAGCCUUGCGCUGCUGCUGUAUCUUCAUCACGCUAAGUGGAGCCAGGCCGCACCCAUGGCGGAGGGUGGCGGACAGAAUCACCACGAAGUAGUCAAAUUCAUGGACGUGUACCAGAGGUCGUAUUGCCAUCCGAUUGAAACUCUUGUGGAUAUCUUUCAAGAAUACCCCGAUGAAAUCGAGUACAUUUUCAAACCGUCGUGUGUCCCUCUCAUGAGGUGCGGGGGAUGCUGCAAUGAUGAAGGGUUGGAGUGUGUCCCCACGGAGGAGUCGAAUAUCACAAUGCAAAUCAUGCGCAUCAAACCACAUCAGGGUCAGCAUAUUGGAGAGAUGUCCUUUCUCCAGCACAACAAAUGUGAGUGUAGACCGAAGAAGGACCGAGCCCGACAGGAAAACCCAUGCGGACCGUGCUCCGAGCGGCGCAAACACUUGUUCGUACAAGACCCCCAGACAUGCAAGUGCUCAUGUAAGAAUACCGAUUCGCGGUGUAAGGCGAGACAGCUGGAAUUGAACGAGCGCACGUGUAGGUGCGACAAGCCUAGACGGUGAGCUGCCUUCUGCGGGGCUUGCCUUCUGGCCAUGCCCUUCUUCUCUCCCUUGCACCUGUACCUCUUGGUCUUUGAAUAAAGCCUGAGUAGGAAG
# modifications: Cap1, polyA tail, 5mC/pseudoU, Lipofectamine2000 complex
# B2: Human EPO mmRNA (nucleic acid, listed as Homo sapiens)
# sense: GGGAAAUAAGAGAGAAAAGAAGAGUAAGAAGAAAUAUAAGAGCCACCAUGGGAGUGCACGAGUGUCCCGCGUGGUUGUGGUUGCUGCUGUCGCUCUUGAGCCUCCCACUGGGACUGCCUGUGCUGGGGGCACCACCCAGAUUGAUCUGCGACUCACGGGUACUUGAGAGGUACCUUCUUGAAGCCAAAGAAGCCGAAAACAUCACAACCGGAUGCGCCGAGCACUGCUCCCUCAAUGAGAACAUUACUGUACCGGAUACAAAGGUCAAUUUCUAUGCAUGGAAGAGAAUGGAAGUAGGACAGCAGGCCGUCGAAGUGUGGCAGGGGCUCGCGCUUUUGUCGGAGGCGGUGUUGCGGGGUCAGGCCCUCCUCGUCAACUCAUCACAGCCGUGGGAGCCCCUCCAACUUCAUGUCGAUAAAGCGGUGUCGGGGCUCCGCAGCUUGACGACGUUGCUUCGGGCUCUGGGCGCACAAAAGGAGGCUAUUUCGCCGCCUGACGCGGCCUCCGCGGCACCCCUCCGAACGAUCACCGCGGACACGUUUAGGAAGCUUUUUAGAGUGUACAGCAAUUUCCUCCGCGGAAAGCUGAAAUUGUAUACUGGUGAAGCGUGUAGGACAGGGGAUCGCUGAUAAGCUGCCUUCUGCGGGGCUUGCCUUCUGGCCAUGCCCUUCUUCUCUCCCUUGCACCUGUACCUCUUGGUCUUUGAAUAAAGCCUGAGUAGGAAG
# modifications: 5' Cap1, polyA tail ~160 nt
# B3: G-CSF unmodified: unmodified G-CSF mRNA SEQ ID NO 6, Cap1 (nucleic acid, listed as Homo sapiens)
# chain: GGGAAAUAAGAGAGAAAAGAAGAGUAAGAAGAAAUAUAAGAGCCACCAUGGCCGGUCCCGCGACCCAAAGCCCCAUGAAACUUAUGGCCCUGCAGUUGCUGCUUUGGCACUCGGCCCUCUGGACAGUCCAAGAAGCGACUCCUCUCGGACCUGCCUCAUCGUUGCCGCAGUCAUUCCUUUUGAAGUGUCUGGAGCAGGUGCGAAAGAUUCAGGGCGAUGGAGCCGCACUCCAAGAGAAGCUCUGCGCGACAUACAAACUUUGCCAUCCCGAGGAGCUCGUACUGCUCGGGCACAGCUUGGGGAUUCCCUGGGCUCCUCUCUCGUCCUGUCCGUCGCAGGCUUUGCAGUUGGCAGGGUGCCUUUCCCAGCUCCACUCCGGUUUGUUCUUGUAUCAGGGACUGCUGCAAGCCCUUGAGGGAAUCUCGCCAGAAUUGGGCCCGACGCUGGACACGUUGCAGCUCGACGUGGCGGAUUUCGCAACAACCAUCUGGCAGCAGAUGGAGGAACUGGGGAUGGCACCCGCGCUGCAGCCCACGCAGGGGGCAAUGCCGGCCUUUGCGUCCGCGUUUCAGCGCAGGGCGGGUGGAGUCCUCGUAGCGAGCCACCUUCAAUCAUUUUUGGAAGUCUCGUACCGGGUGCUGAGACAUCUUGCGCAGCCGUGAAGCGCUGCCUUCUGCGGGGCUUGCCUUCUGGCCAUGCCCUUCUUCUCUCCCUUGCACCUGUACCUCUUGGUCUUUGAAUAAAGCCUGAGUAGGAAG
# modifications: Cap1
# What was measured:
# [1] = system: TNF-alpha; test: Chemical modification ranges, modified RNA transfected in PBMC, TNF-alpha ELISA; assay type: cell-based, human
# Method: (§1) The supernatant was harvested and run by ELISA 22 hours after transfection to determine the protein expression.
# [2] = system: peripheral blood mononuclear cells (PBMC); test: In vitro PBMC study, percent modification: IFN-alpha and TNF-alpha by ELISA, PC ratio; assay type: cell-based, human
# Method: as §1
# [3] = system: IFN-alpha; test: Chemical modification ranges, modified RNA transfected in PBMC, IFN-alpha ELISA; assay type: cell-based, human
# Method: 960 ng of G-CSF mRNA modified with 5-methylcytosine (5mC) and pseudouridine (pseudoU) or unmodified G-CSF mRNA was transfected with 0.8 uL of Lipofectamine 2000 into peripheral blood mononuclear cells (PBMC) from three normal blood donors (D1, D2, D3). […] The supernatant was harvested and run by ELISA 22 hours after transfection to determine the protein expression. The expression of IFN-alpha and TNF-alpha may be a secondary effect from the transfection of the G-CSF mRNA.
# [4] = system: Human primary foreskin fibroblasts (BJ fibroblasts); test: Innate immune response transcripts in BJ fibroblasts, single transfection (qPCR); assay type: cell-based; details: 250 ng, 18 hours
# Description: Control samples of poly I:C.
# [5] = system: HEK293 cells; test: In vitro expression of VEGF modified mRNA (ELISA); assay type: cell-based
# [6] = Split dose study IM, serum human EPO, product per unit drug and dose splitting factor; assay type: in vivo, mice
# Method: The dosing vehicle (F. buffer) consisted of 150 mM NaCl, 2 mM CaCl2, 2 mM Na^+-phosphate (1.4 mM monobasic sodium phosphate; 0.6 mM dibasic sodium phosphate), and 0.5 mM EDTA, pH 6.5. The pH was adjusted using sodium hydroxide and the final solution was filter sterilized.
# Animals (n=5) were injected IM (intramuscular) for the single unit dose of 100 ug. For multi-dosing, two schedules were used, 3 doses of 100 ug and 6 doses of 100 ug. For the split dosing scheme, two schedules were used, 3 doses at 33.3 ug and 6 doses of 16.5 ug mmRNA. Control dosing involved use of buffer only at 6 doses. […] Blood and muscle tissue were evaluated 13 hrs post injection.
# Human EPO protein was measured in mouse serum 13 h post I.M. single, multi- or split dosing of the EPO mmRNA in buffer. Seven groups of mice (n=5 mice per group) were treated and evaluated.
# The splitting factor is defined as the product per unit drug divided by the single dose product per unit drug (PUD) For example for treatment group 2 the value 0.28 or product (EPO) per unit drug (mmRNA) is divided by the single dose product per unit drug of 0.14. The result is 2. Likewise, for treatment group 4, the value 1.1 or product (EPO) per unit drug (mmRNA) is divided by the single dose product per unit drug of 0.14. The result is 7.9. Consequently, the dose splitting factor (DSF) may be used as an indicator of the efficacy of a split dose regimen. For any single administration of a total daily dose, the DSF should be equal to 1. Therefore any DSF greater than this value in a split dose regimen is an indication of increased efficacy.
# [7] = Stability of modified RNA on storage (gel electrophoresis); assay type: physicochemical
# Method: Stability experiments were conducted to obtain a better understanding of storage conditions to retain the integrity of modified RNA. […] 40° C. 37° C. 25° C. 4° C. or −20° C. After the mRNA had been stored for 0 hours, 2 hours, 6 hours, 24 hours, 48 hours, 5 days and 14 days, the mRNA was analyzed by gel electrophoresis using a Bio-Rad EXPERION™ system. The modified, unmodified and lipoplexed G-CSF mRNA was also stored in RNASTABLE® (Biomatrica, Inc. San Diego, Calif.) at 40° C. or water at −80° C. or 40° C. for 35 days before being analyzed by gel electrophoresis.
# mRNA samples stored at 4° C. 25° C. and 37° C. were stored in 1×TE buffer or the formulation buffer (150 mM sodium chloride, 2 mM calcium chloride, 2 mM phosphate, 0.5 mM EDTA at a pH of 6.5). The mRNA stored at 4° C. was stable to at least 60 days in both the TE and formulation buffer. At 25° C. the mRNA in formulation buffer was stable out to 14 days and the TE buffer was stable out to at least 6 days. Storage of mRNA in the formulation buffer at 37° C. was stable to 6 days compared to the TE buffer which was stable only until 4 days.
# [8] = group 1: 1 × 100 ug, total dose 100 ug
# [9] = group 2: 3 × 100 ug, total dose 300 ug
# [10] = group 3: 3 × 33.3 ug, total dose 600 ug
# [11] = group 4: 3 × 33.3 ug, total dose 100 ug
# [12] = group 5: 6 × 16.5 ug, total dose 100 ug
molecule,measurement,setting,value
poly I:C [P(I)P(C)],TNF-alpha Expression,[1]; PBMC donor D1,61.2 pg/mL
same,TNF-alpha Expression,[1]; PBMC donor D2,4.4 pg/mL
same,TNF-alpha Expression,[1]; PBMC donor D3,69.1 pg/mL
same,IFN-alpha Expression,"[2]; donor D1, 22 hours",130.8 pg/mL
same,TNF-alpha Expression,"[2]; donor D1, 22 hours",765.8 pg/mL
same,IFN-alpha Expression,"[2]; donor D2, 22 hours",297.1 pg/mL
same,TNF-alpha Expression,"[2]; donor D2, 22 hours",2362.7 pg/mL
same,IFN-alpha Expression,"[2]; donor D3, 22 hours",585.2 pg/mL
same,TNF-alpha Expression,"[2]; donor D3, 22 hours",420.4 pg/mL
same,IFN-alpha Expression,[3]; PBMC donor D1,1498.1 pg/mL
same,IFN-alpha Expression,[3]; PBMC donor D2,216.8 pg/mL
same,IFN-alpha Expression,[3]; PBMC donor D3,238.8 pg/mL
same,AIM2 transcript level,[4],0.100 fold-induction relative to HPRT
same,IFIT-1 transcript level,[4],71.914 fold-induction relative to HPRT
same,IFNa transcript level,[4],0.063 fold-induction relative to HPRT
same,IFNb transcript level,[4],1.523 fold-induction relative to HPRT
same,IL6 transcript level,[4],2.8 fold-induction relative to HPRT
same,OAS-1 transcript level,[4],8.628 fold-induction relative to HPRT
same,PKR transcript level,[4],10.326 fold-induction relative to HPRT
same,RIG-I transcript level,[4],30.0 fold-induction relative to HPRT
same,TNFa transcript level,[4],0.264 fold-induction relative to HPRT
B1,Protein,[5]; 2 pg transfected,0 pg/mL
same,Protein,[5]; 10 pg transfected,0 pg/mL
same,Protein,[5]; 39 pg transfected,0 pg/mL
same,Protein,[5]; 610 fg transfected,0 pg/mL
B2,Dose Splitting Factor,[6]; [8],1
same,Polypeptide per unit drug,[6]; [8],0.14 pmol/µg
same,Dose Splitting Factor,[6]; [9],2
same,Polypeptide per unit drug,[6]; [9],0.28 pmol/µg
same,Dose Splitting Factor,[6]; [10],3.3
same,Polypeptide per unit drug,[6]; [10],0.46 pmol/µg
same,Dose Splitting Factor,[6]; [11],7.9
same,Polypeptide per unit drug,[6]; [11],1.1 pmol/µg
same,Dose Splitting Factor,[6]; [12],9.3
same,Polypeptide per unit drug,[6]; [12],1.3 pmol/µg
B3,stable out to,[7]; stored at 25° C.,48 h
same,stable out to,[7]; stored at 37° C.,6 h
same,stable out to,[7]; stored at 50° C.,2 h
